Usually IC50 stands for the concentration needed to halve the response being measured.

Molecules are shown by their SMILES.

We go through 12 molecules from patent publication US9440981B2, “Pyrrolo[2, 1-F] [1,2,4]triazine derivative and use thereof for treating tumors” (PHARMABLOCK (NANJING) R&D CO. LTD., priority 2012, dated 2016).

Holding throughout (format): cell-based
Experiment [1] has as its system human breast cancer cell line BT-549. The experiment is described as follows: MTT assay, growth inhibition of BT-549 cells. To be noted: 96-hr culture, read-out: IC50 ± SD, BT-549. As for the experimental part:
(§1) The inhibition of the compounds of the present invention on growth of a variety of human tumor cell lines is evaluated by MTT assay.
(§2) Method: cells in exponential phase (human gastric cancer cell line SGC-7901, human non-small cell lung cancer cell line A549, human breast cancer cell line BT-549, human prostatic cancer cell line PC-3, human colon cancer cell line HT-29, and human liver cancer cell line SMMC-7721) are seeded at a density of 1.5×10^4 in a 96-well plate. After 24-hr culture, the cells are grown to confluent and the previous culture medium is aspirated. The test includes a control group, and a treatment group. In the control group, a 1640 medium containing 10% fetal bovine serum is replenished; and in the treatment group, a medium containing 100 μM, 50 μM, 10 μM, 1 μM, 0.1 μM, 0.01 μM, 0.001 μM, 0.0001 μM, and 0.00001 μM test compound is replenished. After 96-hr culture, 5 mg/mL MTT is added, and cultured in a CO2 incubator for another 4 hrs. Then, 100 μL of the supernatant is aspirated from the upper portion of the culture medium, and placed in the dark for 10 min after 100 μL DMSO is added. The absorbance (at 570 nm) is measured on a microplate reader (available from Sunrise Co., Ltd.), and the cell viability is calculated from the absorbance. 6 replicate wells are set for each treatment. Cell viability (%)=ΔODtreatment/ΔODcontrol×100.
(§3) The ID50 values of six compounds for inhibiting the growth of numerous human tumor cell lines are calculated by Sigmaplot 10.0 software and are shown in Table 1.
A general note: Tetrazolium dyes change colour on reduction, which living cells bring about.

Experiment [2] deals with human prostatic cancer cell line PC-3. The experiment is described as follows: MTT assay, growth inhibition of PC-3 cells. To be noted: 96-hr culture, read-out: IC50 ± SD, PC-3. The procedure:
as §1, §2, §3

Experiment [3] relates to human liver cancer cell line SMMC-7721. The experiment is described as follows: MTT assay, growth inhibition of SMMC-7721 cells. To be noted: 96-hr culture, read-out: IC50 ± SD, SMMC-7721. The procedure: as §1, §2, §3
For experiment [4], the system named is human colon cancer cell line HT-29. Kind of experiment: MTT assay, growth inhibition of HT-29 cells. Conditions: 96-hr culture, read-out: IC50 ± SD, HT-29. As for the experimental part: as §1, §2, §3
The subject of experiment [5] is human gastric cancer cell line SGC-7901. The experiment is described as follows: MTT assay, growth inhibition of SGC-7901 cells. Conditions: 96-hr culture, read-out: IC50 ± SD, SGC-7901. As for the experimental part:
as §1, §2, §3

Experiment [6] has as its system human non-small cell lung cancer cell line A549. The experiment is described as follows: MTT assay, growth inhibition of A549 cells. To be noted: 96-hr culture, read-out: IC50 ± SD, A549. As for the experimental part: as §1, §2, §3

As to `CS(=O)(=O)N1CCN(Cc2cc3c(N4CCOCC4)nc(-c4cccc5[nH]ccc45)nn3c2)CC1` [Compound I-1], the IC50 in experiment [1] turned out to be 1270 ± 80 nM; in experiment [2], 510 ± 60 nM; in experiment [3], 1690 ± 180 nM; in experiment [4], 990 ± 40 nM; in experiment [5], 2150 ± 140 nM; in experiment [6] it was 2610 ± 340 nM.

Regarding `CS(=O)(=O)N1CCN(Cc2cc3c(N4CCOCC4)nc(-c4cccc5[nH]ncc45)nn3c2)CC1` [Compound I-2], the IC50 was 350 ± 150 nM in experiment [1]; 440 ± 80 nM in experiment [2]; 2530 ± 1490 nM in experiment [3]; 160 ± 30 nM in experiment [4]; 1350 ± 280 nM in experiment [5]; 2950 ± 450 nM in experiment [6].

On to `CS(=O)(=O)N1CCN(Cc2cc3c(N4CCOCC4)nc(-c4ccnc5[nH]ccc45)nn3c2)CC1` [Compound I-3], for which the 50% inhibitory concentration (IC50) in experiment [1] was 1990 ± 70 nM; in experiment [2], 780 ± 360 nM; in experiment [3] it was 1720 ± 70 nM; in experiment [4], 960 ± 310 nM; in experiment [5] it was 2520 ± 60 nM; in experiment [6], 2730 ± 520 nM.

As to `CS(=O)(=O)N1CCN(Cc2cc3c(N4CCOCC4)nc(-c4cnc(N)nc4)nn3c2)CC1` [Compound I-4], the IC50 in experiment [1] turned out to be 610 ± 70 nM; in experiment [2] it was 1170 ± 140 nM; in experiment [3], 630 ± 110 nM; in experiment [4] it was 1210 ± 40 nM; in experiment [5] it was 830 ± 30 nM; in experiment [6] it was 620 ± 60 nM.

For the molecule `CS(=O)(=O)N1CCN(C(=O)c2cc3c(N4CCOCC4)nc(-c4cccc5[nH]ncc45)nn3c2)CC1` [Compound I-5], the IC50 in experiment [1] turned out to be 590 ± 220 nM; in experiment [2], 220 ± 10 nM; in experiment [3], 2150 ± 190 nM; in experiment [4] it was 730 ± 20 nM; in experiment [5] it was 3350 ± 460 nM; in experiment [6], 1960 ± 330 nM.

With `CC(C)(O)c1cc2c(N3CCOCC3)nc(-c3cccc4[nH]ncc34)nn2c1` [Compound I-6], the half-inhibitory concentration (IC50) in experiment [1] stood at 2600 ± 670 nM; in experiment [2], 1050 ± 640 nM; in experiment [3], 1840 ± 320 nM; in experiment [4], 2150 ± 190 nM; in experiment [5] it was 1010 ± 20 nM; in experiment [6], 1350 ± 280 nM.

Turning to `CCS(=O)(=O)N1CCN(Cc2cc3c(N4CCOCC4)nc(-c4cnc(N)nc4)nn3c2)CC1` [Compound I-7], the IC50 is 340 ± 40 nM in experiment [1]; 290 ± 130 nM in experiment [2]; 1630 ± 390 nM in experiment [3]; 470 ± 90 nM in experiment [4]; 2390 ± 480 nM in experiment [5]; 1930 ± 230 nM in experiment [6].

Turning to `CC(=O)N1CCN(Cc2cc3c(N4CCOCC4)nc(-c4cnc(N)nc4)nn3c2)CC1` [Compound I-8], the IC50 was determined as 110 ± 20 nM in experiment [1]; 140 ± 90 nM in experiment [2]; 1280 ± 230 nM in experiment [3]; 290 ± 50 nM in experiment [4]; 1420 ± 230 nM in experiment [5]; 1030 ± 140 nM in experiment [6].

As to `Nc1ncc(-c2nc(N3CCOCC3)c3cc(CN4CCN(C(=O)C5CC5)CC4)cn3n2)cn1` [Compound I-9], the IC50 in experiment [1] came to 410 ± 110 nM; in experiment [2], 930 ± 180 nM; in experiment [3], 3140 ± 380 nM; in experiment [4] it was 870 ± 160 nM; in experiment [5], 2510 ± 350 nM; in experiment [6], 3210 ± 380 nM.

As for `C[C@H](O)C(=O)N1CCN(Cc2cc3c(N4CCOCC4)nc(-c4cnc(N)nc4)nn3c2)CC1` [Compound I-10], the half-inhibitory concentration (IC50) was found to be 130 ± 30 nM in experiment [1]; 200 ± 110 nM in experiment [2]; 1050 ± 240 nM in experiment [3]; 310 ± 80 nM in experiment [4]; 1290 ± 140 nM in experiment [5]; 1480 ± 190 nM in experiment [6].

With `C[C@@H](O)C(=O)N1CCN(Cc2cc3c(N4CCOCC4)nc(-c4cnc(N)nc4)nn3c2)CC1` [Compound I-11], the IC50 in experiment [1] was 290 ± 130 nM; in experiment [2] it was 250 ± 120 nM; in experiment [3], 2050 ± 280 nM; in experiment [4], 850 ± 180 nM; in experiment [5], 1490 ± 150 nM; in experiment [6], 1500 ± 200 nM.

As for `CS(=O)(=O)N1CCN(Cc2cc3nc(-c4cccc5[nH]ncc45)nc(N4CCOCC4)c3s2)CC1` [GDC-0941, reference compound], the IC50 in experiment [1] amounted to 590 ± 220 nM; in experiment [2] it was 220 ± 20 nM; in experiment [3] it was 2450 ± 190 nM; in experiment [4], 780 ± 20 nM; in experiment [5], 9370 ± 1430 nM; in experiment [6], 1980 ± 340 nM.
